These results are taken from patent US7700592B2, “α2C adrenoreceptor agonists” (Schering Corporation, priority 2005, dated 2010).

This assay has as its target T1, α2C receptor (Homo sapiens, UniProt P18825).
T1 sequence (P18825 1-462): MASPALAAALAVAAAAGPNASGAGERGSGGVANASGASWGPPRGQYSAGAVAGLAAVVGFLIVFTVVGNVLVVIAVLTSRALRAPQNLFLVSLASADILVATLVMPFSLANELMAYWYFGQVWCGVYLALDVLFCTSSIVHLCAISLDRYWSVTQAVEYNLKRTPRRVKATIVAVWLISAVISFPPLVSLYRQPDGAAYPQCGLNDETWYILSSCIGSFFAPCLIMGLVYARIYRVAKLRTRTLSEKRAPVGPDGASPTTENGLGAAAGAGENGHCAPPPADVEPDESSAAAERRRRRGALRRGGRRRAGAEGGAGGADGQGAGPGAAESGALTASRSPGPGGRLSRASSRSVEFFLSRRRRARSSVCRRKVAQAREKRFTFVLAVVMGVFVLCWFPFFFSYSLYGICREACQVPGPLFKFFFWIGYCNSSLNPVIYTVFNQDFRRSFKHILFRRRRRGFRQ
The assay can be described thus: GTPγS assay, efficacy agonist activity (Emax) for α2C. Format: biochemical. The following applies: active agonist = efficacy at α2C ≧30% Emax; functionally selective = additionally efficacy at α2A ≦30% Emax (GTPγS assay). The source says:
For the purposes of this present invention, a compound is defined to be an active agonist of the α2C receptor subtype if the compound's efficacy at the α2C receptor is ≧30% Emax (GTPγS assay). A compound is a functionally selective agonist of the α2C receptor subtype over the α2A receptor subtype if the compound's efficacy at the α2C receptor is ≧30% Emax (GTPγS assay) and its efficacy at the α2A receptor is ≦30% Emax (GTPγS assay).
Efficacy agonist activity values (Emax, GTPγS assay) for α2C were determined by following the general procedure detailed by Umland et al (“Receptor reserve analysis of the human α2c-adrenoceptor using [^35S]GTPγS and cAMP functional assays” European Journal of Pharmacology 2001, 411, 211-221). For the purposes of the present invention, a compound is defined to be an active agonist of the α2C receptor subtype if the compound's efficacy at the α2C receptor is ≧30% Emax (GTPγS assay). A compound is a functionally selective agonist of the α2C receptor subtype over the α2A receptor subtype if the compound's efficacy at the α2C receptor is […] Emax (GTPγS assay) and its efficacy at the α2A receptor is ≦30% Emax (GTPγS assay).

On to `c1ccc2c(c1)OCCN2Cc1c[nH]cn1` [Compound 1], for which the “Efficacy agonist activity (Emax, GTPγS assay) for α2C: evaluated as active or functionally selective agonist” value is recorded as “active or functionally selective agonists of the α2C receptor subtype”.
As to `O=[N+]([O-])c1ccc2c(c1)N(Cc1c[nH]cn1)CCO2` [Compound 3D], the “Efficacy agonist activity (Emax, GTPγS assay) for α2C: evaluated as active or functionally selective agonist” value was “active or functionally selective agonists of the α2C receptor subtype”.
`Nc1ccc2c(c1)N(Cc1c[nH]cn1)CCO2` [Compound 3E]: the “Efficacy agonist activity (Emax, GTPγS assay) for α2C: evaluated as active or functionally selective agonist” value is listed as “active or functionally selective agonists of the α2C receptor subtype”.
Take `COC(=O)Nc1ccc2c(c1)N(Cc1c[nH]cn1)CCO2` [Compound 3]: the “Efficacy agonist activity (Emax, GTPγS assay) for α2C: evaluated as active or functionally selective agonist” value is “active or functionally selective agonists of the α2C receptor subtype”.
Regarding `CNC(=O)Nc1ccc2c(c1)N(Cc1c[nH]cn1)CCO2` [Compound 5], the “Efficacy agonist activity (Emax, GTPγS assay) for α2C: evaluated as active or functionally selective agonist” value is reported as “active or functionally selective agonists of the α2C receptor subtype”.
As to `COC(=O)N(C)c1ccc2c(c1)N(Cc1c[nH]cn1)CCO2` [Compound 6E], the “Efficacy agonist activity (Emax, GTPγS assay) for α2C: evaluated as active or functionally selective agonist” value is “active or functionally selective agonists of the α2C receptor subtype”.
Turning to `CNC(=O)N(C)c1ccc2c(c1)N(Cc1c[nH]cn1)CCO2` [Compound 6], the “Efficacy agonist activity (Emax, GTPγS assay) for α2C: evaluated as active or functionally selective agonist” value was “active or functionally selective agonists of the α2C receptor subtype”.
For `CCNC(=O)N(C)c1ccc2c(c1)N(Cc1c[nH]cn1)CCO2` [Compound 7], the “Efficacy agonist activity (Emax, GTPγS assay) for α2C: evaluated as active or functionally selective agonist” value is “active or functionally selective agonists of the α2C receptor subtype”.
Turning to `CCOC(=O)N(C)c1ccc2c(c1)N(Cc1c[nH]cn1)CCO2` [Compound 8], the “Efficacy agonist activity (Emax, GTPγS assay) for α2C: evaluated as active or functionally selective agonist” value was “active or functionally selective agonists of the α2C receptor subtype”.
For `N#Cc1ccc2c(c1)N(Cc1c[nH]cn1)CCO2` [Compound 12], the “Efficacy agonist activity (Emax, GTPγS assay) for α2C: evaluated as active or functionally selective agonist” value was “active or functionally selective agonists of the α2C receptor subtype”.
`N=C(N)c1ccc2c(c1)N(Cc1c[nH]cn1)CCO2` [Compound 13]: the “Efficacy agonist activity (Emax, GTPγS assay) for α2C: evaluated as active or functionally selective agonist” value is “active or functionally selective agonists of the α2C receptor subtype”.
As for `CSc1ccc2c(c1)N(Cc1c[nH]cn1)CCO2` [Compound 14B], the “Efficacy agonist activity (Emax, GTPγS assay) for α2C: evaluated as active or functionally selective agonist” value was “active or functionally selective agonists of the α2C receptor subtype”.
For the molecule `CS(=O)(=O)c1ccc2c(c1)N(Cc1c[nH]cn1)CCO2` [Compound 14], the “Efficacy agonist activity (Emax, GTPγS assay) for α2C: evaluated as active or functionally selective agonist” value is “active or functionally selective agonists of the α2C receptor subtype”.
With `c1c[nH]c(-c2ccc3c(c2)N(Cc2c[nH]cn2)CCO3)c1` [Compound 15], the “Efficacy agonist activity (Emax, GTPγS assay) for α2C: evaluated as active or functionally selective agonist” value was “active or functionally selective agonists of the α2C receptor subtype”.
Consider `O=[N+]([O-])c1cc(F)c2c(c1)N(Cc1c[nH]cn1)CCO2` [Compound 19D], for which the “Efficacy agonist activity (Emax, GTPγS assay) for α2C: evaluated as active or functionally selective agonist” value is “active or functionally selective agonists of the α2C receptor subtype”.
For `COC(=O)Nc1cc(F)c2c(c1)N(Cc1c[nH]cn1)CCO2` [Compound 19], the “Efficacy agonist activity (Emax, GTPγS assay) for α2C: evaluated as active or functionally selective agonist” value is recorded as “active or functionally selective agonists of the α2C receptor subtype”.
Take `COC(=O)Nc1cc(Cl)c2c(c1)N(Cc1c[nH]cn1)CCO2` [Compound 20]: the “Efficacy agonist activity (Emax, GTPγS assay) for α2C: evaluated as active or functionally selective agonist” value is listed as “active or functionally selective agonists of the α2C receptor subtype”.
As to `COC(=O)Nc1cc2c(cc1F)OCCN2Cc1c[nH]cn1` [Compound 21], the “Efficacy agonist activity (Emax, GTPγS assay) for α2C: evaluated as active or functionally selective agonist” value is “active or functionally selective agonists of the α2C receptor subtype”.
In the case of `O=[N+]([O-])c1ccc2c(n1)N(Cc1c[nH]cn1)CCO2` [Compound 22], the “Efficacy agonist activity (Emax, GTPγS assay) for α2C: evaluated as active or functionally selective agonist” value is on record as “active or functionally selective agonists of the α2C receptor subtype”.
On to `Nc1ccc2c(c1)N(Cc1c[nH]cn1)CCS2` [Compound 24D], for which the “Efficacy agonist activity (Emax, GTPγS assay) for α2C: evaluated as active or functionally selective agonist” value was “active or functionally selective agonists of the α2C receptor subtype”.
As for `COC(=O)Nc1ccc2c(c1)N(Cc1c[nH]cn1)CCS2` [Compound 24], the entry is “active or functionally selective agonists of the α2C receptor subtype”.
As for `c1ccc2c(c1)SCCN2Cc1c[nH]cn1` [Compound 25B], the “Efficacy agonist activity (Emax, GTPγS assay) for α2C: evaluated as active or functionally selective agonist” value is listed as “active or functionally selective agonists of the α2C receptor subtype”.
In the case of `c1ccc2c(c1)NCCN2Cc1c[nH]cn1` [Compound 26A], the “Efficacy agonist activity (Emax, GTPγS assay) for α2C: evaluated as active or functionally selective agonist” value is “active or functionally selective agonists of the α2C receptor subtype”.
As for `COC(=O)N1CCN(Cc2c[nH]cn2)c2ccccc21` [Compound 26B], the entry is “active or functionally selective agonists of the α2C receptor subtype”; as for `CN1CCN(Cc2c[nH]cn2)c2ccccc21` [Compound 26], “active or functionally selective agonists of the α2C receptor subtype”; as for `CC(=O)N1CCN(Cc2c[nH]cn2)c2ccccc21` [Compound 27E], “active or functionally selective agonists of the α2C receptor subtype”.
Take `O=[N+]([O-])c1ccc2c(c1)N(Cc1c[nH]cn1)CCCO2` [Compound 28D]: the “Efficacy agonist activity (Emax, GTPγS assay) for α2C: evaluated as active or functionally selective agonist” value is recorded as “active or functionally selective agonists of the α2C receptor subtype”.
Consider `COC(=O)Nc1ccc2c(c1)N(Cc1c[nH]cn1)CCCO2` [Compound 28], for which the “Efficacy agonist activity (Emax, GTPγS assay) for α2C: evaluated as active or functionally selective agonist” value was “active or functionally selective agonists of the α2C receptor subtype”.
To `CCOC(=O)Cc1ccc2c(c1)N(Cc1c[nH]cn1)CCO2` [Compound 29] belongs “active or functionally selective agonists of the α2C receptor subtype”; to `O=C(Cc1ccc2c(c1)N(Cc1c[nH]cn1)CCO2)NCc1ccccc1` [Compound 30], “active or functionally selective agonists of the α2C receptor subtype”.
In the case of `O=[N+]([O-])c1ccc2c(c1)N(CCc1c[nH]cn1)CCO2` [Compound 37], the “Efficacy agonist activity (Emax, GTPγS assay) for α2C: evaluated as active or functionally selective agonist” value is listed as “active or functionally selective agonists of the α2C receptor subtype”.
With `CCN(C(=O)NC)c1ccc2c(c1)N(Cc1c[nH]cn1)CCO2` [Compound 38], the “Efficacy agonist activity (Emax, GTPγS assay) for α2C: evaluated as active or functionally selective agonist” value is on record as “active or functionally selective agonists of the α2C receptor subtype”.
As for `CNC(=O)N(c1ccc2c(c1)N(Cc1c[nH]cn1)CCO2)C(C)C` [Compound 46], the entry is “active or functionally selective agonists of the α2C receptor subtype”.
To `CNC(=O)Nc1ccc2c(n1)N(Cc1c[nH]cn1)CCO2` [Compound 51] belongs “active or functionally selective agonists of the α2C receptor subtype”; to `CCN(C(=O)OC)c1ccc2c(n1)N(Cc1c[nH]cn1)CCO2` [Compound 53], “active or functionally selective agonists of the α2C receptor subtype”; to `Brc1ccc2c(n1)N(Cc1c[nH]cn1)CCO2` [Compound 54], “active or functionally selective agonists of the α2C receptor subtype”.
For `N#Cc1ccc2c(n1)N(Cc1c[nH]cn1)CCO2` [Compound 55], the “Efficacy agonist activity (Emax, GTPγS assay) for α2C: evaluated as active or functionally selective agonist” value was “active or functionally selective agonists of the α2C receptor subtype”.
In the case of `COC(=O)Nc1cc(O)c2c(c1)N(Cc1c[nH]cn1)CCO2` [Compound 57], the “Efficacy agonist activity (Emax, GTPγS assay) for α2C: evaluated as active or functionally selective agonist” value is “active or functionally selective agonists of the α2C receptor subtype”.
Turning to `CNC(=O)N(C)c1ccc2c(c1)N(CCc1c[nH]cn1)CCO2` [Compound 58], the “Efficacy agonist activity (Emax, GTPγS assay) for α2C: evaluated as active or functionally selective agonist” value is “active or functionally selective agonists of the α2C receptor subtype”.
For `CCN(C(=O)OCc1ccnc(N)c1)c1ccc2c(c1)N(Cc1c[nH]cn1)CCO2` [Compound 63], the “Efficacy agonist activity (Emax, GTPγS assay) for α2C: evaluated as active or functionally selective agonist” value is “active or functionally selective agonists of the α2C receptor subtype”.
